Several values for one entry are separate records, joined by “and”; a condition that tells them apart may be missing. Equal entries are not always repeated.
Columns and labels:
human RXFP3 = biological target: T1, human RXFP3 (Homo sapiens, UniProt Q9NSD7); assay: GloSensor cAMP assay in RXFP3 transiently transfected HEK293T cells; assay type: cell-based; settings: for RLU (cAMP, raw): RXFP3, 0.1 µM isoproterenol, replicates (1)-(4)
T1 construct: host or cells: HEK293T (transient)
T1 sequence (Q9NSD7 1-469): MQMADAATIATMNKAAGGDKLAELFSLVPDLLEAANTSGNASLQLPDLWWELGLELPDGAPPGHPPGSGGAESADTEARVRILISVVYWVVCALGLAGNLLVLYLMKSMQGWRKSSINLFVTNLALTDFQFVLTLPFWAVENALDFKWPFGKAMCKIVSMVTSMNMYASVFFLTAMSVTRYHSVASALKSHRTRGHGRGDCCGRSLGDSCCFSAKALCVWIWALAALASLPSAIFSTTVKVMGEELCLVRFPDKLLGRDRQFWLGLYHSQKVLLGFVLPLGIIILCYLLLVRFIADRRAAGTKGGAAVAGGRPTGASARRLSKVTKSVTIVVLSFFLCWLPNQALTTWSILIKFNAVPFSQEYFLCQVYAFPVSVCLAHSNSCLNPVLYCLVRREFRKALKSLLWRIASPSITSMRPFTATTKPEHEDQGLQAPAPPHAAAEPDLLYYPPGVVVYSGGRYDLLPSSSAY

human ADORA1 = biological target: T2, human ADORA1 (Homo sapiens, UniProt P30542); assay: PRESTO-Tango β-arrestin recruitment, ADORA1 transfected HTLA cells; assay type: cell-based; settings: for RLU: replicates (1)-(4)
T2 sequence (P30542 1-326): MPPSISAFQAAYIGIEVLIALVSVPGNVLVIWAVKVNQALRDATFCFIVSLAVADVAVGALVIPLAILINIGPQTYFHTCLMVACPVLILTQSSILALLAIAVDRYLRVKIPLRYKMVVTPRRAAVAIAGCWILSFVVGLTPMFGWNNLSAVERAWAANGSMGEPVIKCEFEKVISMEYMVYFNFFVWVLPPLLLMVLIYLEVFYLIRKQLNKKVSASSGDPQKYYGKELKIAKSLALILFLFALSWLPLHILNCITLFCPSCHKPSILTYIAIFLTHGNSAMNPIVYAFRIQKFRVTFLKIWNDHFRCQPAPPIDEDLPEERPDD

trabecular bone of femur = assay: Micro-CT of trabecular bone in femur after 8-week oral treatment; assay type: in vivo, mouse; design: Mat.D / Tb.N / Tb.Th / Tb.Sp / Conn.D: unit not given here
human RXFP4 = biological target: T3, human RXFP4 (Homo sapiens, UniProt Q8TDU9); assay: GloSensor cAMP assay in RXFP4 transiently transfected HEK293T cells; assay type: cell-based; settings: for RLU (cAMP, raw): RXFP4, 0.1 µM isoproterenol, replicates (1)-(4)
T3 construct: host or cells: HEK293T (transient)

[1] = cAMP induced by 0.1 µM isoproterenol
[2] = follow-up test using multiple compound concentrations
[3] = femur trabecular bone, 8-week oral treatment, individual mice

T3 sequence (Q8TDU9 whole entry): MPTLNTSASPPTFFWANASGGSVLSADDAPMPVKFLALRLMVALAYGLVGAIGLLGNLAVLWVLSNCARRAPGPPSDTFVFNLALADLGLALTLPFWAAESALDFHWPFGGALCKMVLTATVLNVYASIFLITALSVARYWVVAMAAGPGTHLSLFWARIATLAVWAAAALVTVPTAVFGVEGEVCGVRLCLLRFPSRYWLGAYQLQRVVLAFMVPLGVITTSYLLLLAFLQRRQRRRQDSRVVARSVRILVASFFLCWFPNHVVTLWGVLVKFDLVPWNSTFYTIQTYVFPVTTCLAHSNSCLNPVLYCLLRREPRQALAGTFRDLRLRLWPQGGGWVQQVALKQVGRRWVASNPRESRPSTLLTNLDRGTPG

SMILES: O=C1Nc2ccc(-c3cc(C(F)(F)F)cc(C(F)(F)F)c3)cc2C(=O)N2CCN(C(=O)COc3ccc(OC(F)(F)F)cc3I)C[C@@H]12 [compound 6641]
- RLU (cAMP, raw) (human RXFP3; Log [M] -4.52): 1801.05 RLU and 1842.11 RLU and 1885.55 RLU and 1904.59 RLU
- RLU (cAMP, raw) (human RXFP3; Log [M] -5): 1713.57 RLU and 1782 RLU and 1870.67 RLU and 1664.77 RLU
- RLU (cAMP, raw) (human RXFP3; Log [M] -5.52): 1763.55 RLU and 1915.9 RLU and 1776.65 RLU and 1719.52 RLU
- RLU (cAMP, raw) (human RXFP3; Log [M] -6): 2045.03 RLU and 1694.52 RLU and 1928.99 RLU and 1704.05 RLU
- RLU (cAMP, raw) (human RXFP3; Log [M] -6.52): 1626.68 RLU and 1976 RLU and 1728.44 RLU and 1743.92 RLU
- RLU (cAMP, raw) (human RXFP3; Log [M] -7): 2133.7 RLU and 1895.07 RLU and 2053.37 RLU and 1981.36 RLU
- RLU (cAMP, raw) (human RXFP3; Log [M] -7.52): 1652.87 RLU and 1825.44 RLU and 1426.73 RLU and 1642.75 RLU
- RLU (cAMP, raw) (human RXFP3; Log [M] -8): 1859.96 RLU and 1760.58 RLU and 1940.89 RLU and 1974.81 RLU
- RLU (cAMP, raw) (human RXFP3; Log [M] -8.52): 2192.97 RLU and 1919.63 RLU
- RLU (cAMP, raw) (human RXFP3; Log [M] -9): 1940.02 RLU and 2105.38 RLU and 1999.67 RLU and 2166.54 RLU
- RLU (cAMP, raw) (human RXFP3; Log [M] -9.52): 2103.87 RLU and 2056.3 RLU and 1688.58 RLU
- RLU (cAMP, raw) (human RXFP3; Log [M] -10): 1933.98 RLU and 1927.18 RLU and 2266.97 RLU and 1930.96 RLU
- RLU (cAMP, raw) (human RXFP3; Log [M] -10.52): 1985.33 RLU and 1919.63 RLU and 2191.46 RLU and 1872.07 RLU
- RLU (cAMP, raw) (human RXFP3; Log [M] -11): 2121.99 RLU and 2313.03 RLU and 1878.86 RLU and 1896.98 RLU
- RLU (cAMP, raw) (human RXFP3; Log [M] -11.52): 2326.62 RLU and 1848.66 RLU and 1903.78 RLU and 1954.37 RLU
- RLU (cAMP, raw) (human RXFP3; Log [M] -12): 1756.54 RLU and 2242.81 RLU and 2177.87 RLU and 2001.94 RLU
- activation of RXFP3 (cAMP inhibition) (human RXFP3; [1]): does not activate
- β-arrestin recruitment, ADORA1 (mean ± SEM) (human ADORA1; 10 µM compound, basal level of detection 3-fold RLU): 3.92 ± 0.15 fold RLU
- RLU (human ADORA1; Log [M] -4.52): 12779.2 RLU and 12694.9 RLU
- RLU (human ADORA1; Log [M] -5): 11730.3 RLU and 10165.7 RLU and 11306.6 RLU
- RLU (human ADORA1; Log [M] -5.52): 8500.46 RLU and 7004.94 RLU and 7182.3 RLU and 7062.97 RLU
- RLU (human ADORA1; Log [M] -6): 6700.59 RLU and 4967.56 RLU and 5863.08 RLU and 4072.06 RLU
- RLU (human ADORA1; Log [M] -6.52): 3400.99 RLU and 2989.38 RLU and 3675.77 RLU and 3380.19 RLU
- RLU (human ADORA1; Log [M] -7): 3045.21 RLU and 3372.53 RLU and 2679.57 RLU and 3462.3 RLU
- RLU (human ADORA1; Log [M] -7.52): 2808.75 RLU and 2538.36 RLU and 2762.77 RLU and 2945.59 RLU
- RLU (human ADORA1; Log [M] -8): 3154.68 RLU and 2602.94 RLU and 3418.51 RLU and 3449.16 RLU
- RLU (human ADORA1; Log [M] -8.52): 2742.95 RLU and 3614.63 RLU and 3319.34 RLU and 3617.47 RLU
- RLU (human ADORA1; Log [M] -9): 3242.68 RLU and 2896.28 RLU and 3413.04 RLU and 3315.08 RLU
- RLU (human ADORA1; Log [M] -9.52): 3821.91 RLU and 2910.47 RLU and 2806.84 RLU and 4087.39 RLU
- RLU (human ADORA1; Log [M] -10): 2500.19 RLU and 3249.78 RLU and 3509.58 RLU and 3875.86 RLU
- RLU (human ADORA1; Log [M] -10.52): 3874.43 RLU and 2887.76 RLU and 2717.4 RLU and 3465.57 RLU
- RLU (human ADORA1; Log [M] -11): 3657.22 RLU and 3613.21 RLU and 3589.08 RLU and 3231.32 RLU
- RLU (human ADORA1; Log [M] -11.52): 2119.72 RLU and 4131.4 RLU and 3244.1 RLU and 3141.88 RLU
- RLU (human ADORA1; Log [M] -12): 3765.12 RLU and 3810.55 RLU and 4489.16 RLU and 3752.34 RLU
- ADORA1 β-arrestin efficacy compared with NECA (human ADORA1; [2]): much lower efficacy
- concentrations at which ADORA1 responded (β-arrestin) (human ADORA1; [2]): above 1 µM
- femur trabecular parameters (micro-CT) (trabecular bone of femur; 10 mg/kg PO 3 times per week, 8 weeks): no changes
- BV/TV (%) (trabecular bone of femur; [3]): 4.31% and 3.06% and 3.16% and 4.83% and 2.23% and 3.75% and 3.15% and 4.04% and 1.79% and 1.82% and 3.85% and 4.53% and 2.18% and 3.86% and 3.36%
- Conn.D (trabecular bone of femur; [3]): 30.1255 and 5.8494 and 15.74 and 19.1725 and 7.6938 and 27.3442 and 18.8338 and 25.1693 and 0 and -0.6363 and 15.6001 and 25.2137 and 3.3792 and 27.5856 and 14.5139
- Mat.D (trabecular bone of femur; [3]): 834.454 and 848.06 and 875.94 and 870.004 and 796.836 and 823.449 and 732.807 and 765.822 and 734.474 and 726.404 and 778.428 and 781.83 and 731.073 and 806.374 and 872.538
- Tb.N (trabecular bone of femur; [3]): 3.0955 and 3.1972 and 2.9789 and 2.9022 and 2.8329 and 3.2718 and 2.9757 and 3.3227 and 2.8446 and 3.0319 and 3.0922 and 3.1695 and 2.9848 and 3.092 and 2.9537
- Tb.Sp (trabecular bone of femur; [3]): 0.3236 and 0.3094 and 0.3391 and 0.3456 and 0.3545 and 0.3064 and 0.3348 and 0.3029 and 0.3454 and 0.3314 and 0.3266 and 0.317 and 0.3334 and 0.3226 and 0.3354
- Tb.Th (trabecular bone of femur; [3]): 0.0422 and 0.0404 and 0.0416 and 0.0484 and 0.033 and 0.037 and 0.035 and 0.0363 and 0.0299 and 0.0308 and 0.0384 and 0.0447 and 0.0326 and 0.0382 and 0.0437
- RLU (cAMP, raw) (human RXFP4; Log [M] -4.52): 2463.26 RLU and 2323.36 RLU and 2574.77 RLU and 2436.25 RLU
- RLU (cAMP, raw) (human RXFP4; Log [M] -5): 3185.64 RLU and 3376.11 RLU and 2670.35 RLU and 2223.62 RLU
- RLU (cAMP, raw) (human RXFP4; Log [M] -5.52): 2765.92 RLU and 2530.44 RLU and 2513.13 RLU and 2428.63 RLU
- RLU (cAMP, raw) (human RXFP4; Log [M] -6): 3247.28 RLU and 3052.66 RLU and 2557.45 RLU and 2549.14 RLU
- RLU (cAMP, raw) (human RXFP4; Log [M] -6.52): 2853.88 RLU and 2734.06 RLU and 2619.79 RLU and 2767.31 RLU
- RLU (cAMP, raw) (human RXFP4; Log [M] -7): 2986.17 RLU and 3107.38 RLU and 2961.24 RLU and 2947.39 RLU
- RLU (cAMP, raw) (human RXFP4; Log [M] -7.52): 3270.14 RLU and 3165.55 RLU and 2781.16 RLU and 2887.13 RLU
- RLU (cAMP, raw) (human RXFP4; Log [M] -8): 3594.97 RLU and 2898.21 RLU and 2737.53 RLU and 2621.17 RLU
- RLU (cAMP, raw) (human RXFP4; Log [M] -8.52): 2962.83 RLU and 3046.77 RLU and 3010.47 RLU and 2788.15 RLU
- RLU (cAMP, raw) (human RXFP4; Log [M] -9): 3689.54 RLU and 3613.16 RLU and 3120.12 RLU and 2641.44 RLU
- RLU (cAMP, raw) (human RXFP4; Log [M] -9.52): 3253.97 RLU and 3351.52 RLU and 2965.85 RLU and 3151.88 RLU
- RLU (cAMP, raw) (human RXFP4; Log [M] -10): 3784.82 RLU and 3051.3 RLU and 3541.33 RLU and 3042.99 RLU
- RLU (cAMP, raw) (human RXFP4; Log [M] -10.52): 2937.88 RLU and 2859.99 RLU and 3018.03 RLU and 2959.05 RLU
- RLU (cAMP, raw) (human RXFP4; Log [M] -11): 3244.89 RLU and 3354.54 RLU and 2788.9 RLU and 3100.46 RLU
- RLU (cAMP, raw) (human RXFP4; Log [M] -11.52): 3393.86 RLU and 2984 RLU and 2869.06 RLU and 2844.86 RLU
- RLU (cAMP, raw) (human RXFP4; Log [M] -12): 3689.54 RLU and 3235.82 RLU and 3343.96 RLU and 2573.39 RLU
- activation of RXFP4 (cAMP inhibition) (human RXFP4; [1]): does not activate

Source: publication PMC9636434, “Discovery of small molecule agonists of the Relaxin Family Peptide Receptor 2” (Communications Biology, 2022)
